Experiment [1] has as its system mutant versus wild-type cell lines of the 44 cell line panel. The experiment is described as follows: Anova analysis of cell panel IC50s against cancer gene changes; standardized mean difference (targetedness).
Experiment [2] relates to forty-four human cancer cell lines. The experiment is described as follows: Cell proliferation assay (ATPlite, 72 hours) in the 44 cell line Oncolines panel. The class given is cell-based. The conditions noted are these: Homo sapiens.

Read-outs that look alike come from different tables or passages of the source.

For the compound `Cc1ccc(NC(=O)c2ccc(CN3CCN(C)CC3)cc2)cc1Nc1nccc(-c2cccnc2)n1` [imatinib], in experiment [1] (ABL1 oncogene targeting, Figure 5D), the “targetedness (standardized logIC50 difference)” value was -9.84.
On to `Cn1cnc2c(F)c(Nc3ccc(Br)cc3Cl)c(C(=O)NOCCO)cc21` [selumetinib], for which, in experiment [1] (CTNNB1 mutant versus wild-type, average), the “Potency shift in cell lines expressing mutant β-catenin (CTNNB1) versus wild-type” value is on record as “more than tenfold”.
Consider `CNC(=O)c1cc(Oc2ccc(NC(=O)Nc3ccc(Cl)c(C(F)(F)F)c3)cc2)ccn1` [sorafenib], for which the IC50 in experiment [2] (4-4 cell, read-out: cell panel IC50, J82) turned out to be 26.5 µM; in experiment [2] (4-4 cell, read-out: cell panel IC50, PA-1), 11.7 µM; in experiment [2] (4-4 cell, read-out: cell panel IC50, SJCRH30), 12.1 µM; in experiment [2] (4-4 cell, read-out: cell panel IC50, SR), 11.8 µM; in experiment [2] (769-P, read-out: cell panel IC50, 769-P) it was 12.7 µM; in experiment [2] (786-0, read-out: cell panel IC50, 786-0), 11.7 µM. The IC50 is 22.6 µM in experiment [2] (A 172, read-out: cell panel IC50, A-172); 1.62 µM in experiment [2] (A204, read-out: cell panel IC50, A-204); 18.7 µM in experiment [2] (A498, read-out: cell panel IC50, A-498); 21.2 µM in experiment [2] (A549, read-out: cell panel IC50, A-549); 28.7 µM in experiment [2] (A-375, read-out: cell panel IC50, A375); 7.78 µM in experiment [2] (A-427, read-out: cell panel IC50, A-427). Further, the IC50 in experiment [2] (ACHN, read-out: cell panel IC50, ACHN) amounted to 17.5 µM; in experiment [2] (AN3-CA, read-out: cell panel IC50, AN3 CA), 9.97 µM; in experiment [2] (AU565, read-out: cell panel IC50, AU-565) it was 10.4 µM; in experiment [2] (BT-20, read-out: cell panel IC50, BT-20) it was 25.1 µM; in experiment [2] (BT-549, read-out: cell panel IC50, BT-549) it was 18.2 µM; in experiment [2] (BXPC-3, read-out: cell panel IC50, BxPC-3), 11.1 µM. Besides, the IC50 came out at 15.9 µM in experiment [2] (C-33-A, read-out: cell panel IC50, C-33 A); 14 µM in experiment [2] (CAL-27, read-out: cell panel IC50, CAL 27); 13 µM in experiment [2] (CCRF-CEM, read-out: cell panel IC50, CCRF-CEM); 10.5 µM in experiment [2] (DLD-1, read-out: cell panel IC50, DLD-1); 16.2 µM in experiment [2] (FaDu, read-out: cell panel IC50, FaDu); 9.9 µM in experiment [2] (HCT-15, read-out: cell panel IC50, HCT-15). The IC50 in experiment [2] (HCT-116, read-out: cell panel IC50, HCT-116) was 11.9 µM; in experiment [2] (Hs-578T, read-out: cell panel IC50, Hs 578T), 21.6 µM; in experiment [2] (Jurkat E6.1, read-out: cell panel IC50, Jurkat E6.1), 7.94 µM; in experiment [2] (K562, read-out: cell panel IC50, K-562), 9.46 µM; in experiment [2] (LS174T, read-out: cell panel IC50, LS 174T) it was 11.7 µM; in experiment [2] (LoVo, read-out: cell panel IC50, LoVo), 11.3 µM. Moreover, the IC50 is 27.4 µM in experiment [2] (MG-63, read-out: cell panel IC50, MG-63); 10.5 µM in experiment [2] (MOLT-4, read-out: cell panel IC50, MOLT-4); 20.9 µM in experiment [2] (MeWo, read-out: cell panel IC50, MeWo); 11.3 µM in experiment [2] (NCI-H82, read-out: cell panel IC50, NCI-H82); 14.1 µM in experiment [2] (NCI-H460, read-out: cell panel IC50, NCI-H460); over 31.6 µM in experiment [2] (OVCAR-3, read-out: cell panel IC50, OVCAR-3). In addition, the IC50 in experiment [2] (RPMI-7951, read-out: cell panel IC50, RPMI-7951) is 20.4 µM; in experiment [2] (SHP77, read-out: cell panel IC50, SHP-77), 13.6 µM; in experiment [2] (SK-N-AS, read-out: cell panel IC50, SK-N-AS), 28.9 µM; in experiment [2] (SW48, read-out: cell panel IC50, SW48) it was 8.3 µM; in experiment [2] (SW480, read-out: cell panel IC50, SW480), 5.33 µM; in experiment [2] (SW-620, read-out: cell panel IC50, SW620), 5.95 µM. For the same compound, the IC50 was determined as 15.8 µM in experiment [2] (U2OS, read-out: cell panel IC50, U-2 OS) and 28.3 µM in experiment [2] (U-87 MG, 72 h, read-out: IC50 in cell proliferation assay (table S5 cellpanel data)).
`CC[C@]1(O)C[C@H]2CN(CCc3c([nH]c4ccccc34)[C@@](C(=O)OC)(c3cc4c(cc3OC)N(C=O)[C@H]3[C@@](O)(C(=O)OC)[C@H](OC(C)=O)[C@]5(CC)C=CCN6CC[C@]43[C@@H]65)C2)C1` [vincristine]: the IC50 stood at 0.013 µM in experiment [2] (769-P, cell line 769-P, read-out: cell panel IC50, 769-P); 0.042 µM in experiment [2] (786-0, cell line 786-0, read-out: cell panel IC50, 786-0); 0.0053 µM in experiment [2] (A 172, read-out: cell panel IC50, A-172, cell line A-172); 0.013 µM in experiment [2] (A204, cell line A-204, read-out: cell panel IC50, A-204); 0.02 µM in experiment [2] (A498, read-out: cell panel IC50, A-498, cell line A-498); 0.024 µM in experiment [2] (A549, read-out: cell panel IC50, A-549, cell line A-549). The IC50 stood at 0.00546 µM in experiment [2] (A-375, cell line A375, read-out: cell panel IC50, A375); 0.00227 µM in experiment [2] (A-427, read-out: cell panel IC50, A-427, cell line A-427); 0.054 µM in experiment [2] (ACHN, cell line ACHN, read-out: cell panel IC50, ACHN); 0.00129 µM in experiment [2] (AN3-CA, cell line AN3 CA, read-out: cell panel IC50, AN3 CA); 0.00321 µM in experiment [2] (AU565, read-out: cell panel IC50, AU-565, cell line AU-565); 0.006 µM in experiment [2] (BT-20, cell line BT-20, read-out: cell panel IC50, BT-20). In addition, the IC50 in experiment [2] (BT-549, read-out: cell panel IC50, BT-549, cell line BT-549) was 0.00273 µM; in experiment [2] (BXPC-3, cell line BxPC-3, read-out: cell panel IC50, BxPC-3), 0.009 µM; in experiment [2] (C-33-A, cell line C-33 A, read-out: cell panel IC50, C-33 A) it was 0.004 µM; in experiment [2] (CAL-27, cell line CAL 27, read-out: cell panel IC50, CAL 27), 0.00278 µM; in experiment [2] (CCRF-CEM, cell line CCRF-CEM, read-out: cell panel IC50, CCRF-CEM), 0.00326 µM; in experiment [2] (DLD-1, cell line DLD-1, read-out: cell panel IC50, DLD-1), 0.061 µM. Besides, the IC50 in experiment [2] (FaDu, cell line FaDu, read-out: cell panel IC50, FaDu) is 0.008 µM; in experiment [2] (HCT-15, cell line HCT-15, read-out: cell panel IC50, HCT-15) it was 0.066 µM; in experiment [2] (HCT-116, read-out: cell panel IC50, HCT-116, cell line HCT-116), 0.005 µM; in experiment [2] (Hs-578T, cell line Hs 578T, read-out: cell panel IC50, Hs 578T) it was 0.00248 µM; in experiment [2] (Jurkat E6.1, cell line Jurkat E6.1, read-out: cell panel IC50, Jurkat E6.1) it was 0.00285 µM; in experiment [2] (K562, read-out: cell panel IC50, K-562, cell line K-562), 0.00319 µM. The IC50 was found to be 0.005 µM in experiment [2] (LS174T, read-out: cell panel IC50, LS 174T, cell line LS 174T); 0.01 µM in experiment [2] (LoVo, cell line LoVo, read-out: cell panel IC50, LoVo); 0.00353 µM in experiment [2] (MG-63, cell line MG-63, read-out: cell panel IC50, MG-63); 0.00154 µM in experiment [2] (MOLT-4, cell line MOLT-4, read-out: cell panel IC50, MOLT-4); 0.00843 µM in experiment [2] (MeWo, cell line MeWo, read-out: cell panel IC50, MeWo); 0.00429 µM in experiment [2] (NCI-H82, cell line NCI-H82, read-out: cell panel IC50, NCI-H82). The IC50 in experiment [2] (NCI-H460, cell line NCI-H460, read-out: cell panel IC50, NCI-H460) is 0.035 µM; in experiment [2] (OVCAR-3, cell line OVCAR-3, read-out: cell panel IC50, OVCAR-3) it was 0.00358 µM; in experiment [2] (RPMI-7951, cell line RPMI-7951, read-out: cell panel IC50, RPMI-7951), 0.00224 µM; in experiment [2] (SHP77, cell line SHP-77, read-out: cell panel IC50, SHP-77), 0.183 µM; in experiment [2] (SK-N-AS, cell line SK-N-AS, read-out: cell panel IC50, SK-N-AS), 0.0023 µM; in experiment [2] (SW48, cell line SW48, read-out: cell panel IC50, SW48), 0.00422 µM. Further, the IC50 is 0.007 µM in experiment [2] (SW480, cell line SW480, read-out: cell panel IC50, SW480); 0.00473 µM in experiment [2] (SW-620, cell line SW620, read-out: cell panel IC50, SW620); 0.022 µM in experiment [2] (U2OS, cell line U-2 OS, read-out: cell panel IC50, U-2 OS); 0.0044 µM in experiment [2] (U-87 MG, 72 h, U-87 MG cell line, ATPlite, 72 hours, read-out: IC50 in cell proliferation assay (table S5 cellpanel data)); 0.028 µM in experiment [2] (cell line J82, read-out: cell panel IC50, J82); 0.00167 µM in experiment [2] (cell line PA-1, read-out: cell panel IC50, PA-1). Besides, the IC50 in experiment [2] (cell line SJCRH30, read-out: cell panel IC50, SJCRH30) was under 0.001 µM; in experiment [2] (cell line SR, read-out: cell panel IC50, SR), under 0.001 µM.
